Measurements taken from patent publication US9512178B2, “Neurogenic brain-derived neurotrophic factor peptides” (Research Foundation for Mental Hygiene, Inc., priority 2012, dated 2016).

System: mouse E18 primary hippocampal neurons
Assay: Toxicity of the peptides: phase contrast morphology and LDH assay, 5 days treatment
Assay type: cell-based
Excerpt: To screen these peptides, primary neuronal cell cultures were used from embryonic day 18 (E18) C57BL/6 mouse hippocampus. At the fourth day in vitro (DIV), the culture medium was exchanged with the medium containing the peptides. The primary neuronal cultures were established as taught in the art (see, e.g., Cardenas-Aguayo Mdel, Santa-Olalla et al. 2003, hereby incorporate by reference). Briefly, C57BL/6 time pregnant E18 female mice from Charles River Labs were anesthetized and killed by cervical dislocation following our Institutional Animal Care and Use Committee (IACUC) regulations and approved protocol. Embryos were removed and placed in cold Hibernate A (available from Brain bits, Springfield, Ill., USA), and all of the following steps were performed in ice-cold Hibernate A, under a stereoscopic (dissection) microscope placed in a laminar flow hood. Fetal brains were removed carefully and fore brain were separated. Then, the hippocampus, including the cortex surrounding the area of the hippocampus, was dissected and cut into small pieces using microsurgical scissors. The cut tissue was transferred with number 5 forceps to 15 ml tubes containing 0.1% trypsin in Versene (Invitrogen Life Technologies, Grand Island, N.Y., USA) and incubated for 15 min at 37° C. followed by inactivation with 10% fetal bovine serum (FBS) in Neurobasal complete medium (Neurobasal Medium supplemented with 2×B-27, 0.30% glutamine, and penicillin/streptomycin 0.1 mg/ml and 0.1 U/ml respectively). All medium components were purchased from Invitrogen, Grand Island, N.Y., USA. […]
To study any toxic effect of the peptides, mouse E18 primary hippocampal neurons were treated with the five BDNF peptides individually for up to 5 days at different doses [5 nM, 25 nM, 50 nM (data not shown), 100 nM (0.1 μM), 1000 nM (1 μM), and 10,000 nM (10 μM)]. […] Accordingly, there was no significant change in the viability of cells treated with any of the peptides as evaluated by the lactate dehydrogenase (LDH) assay (see FIG. 2B). […]

Ac-S-KKR-CONH2 [Peptide B-3]
cell death (LDH assay) vs vehicle treated cells (0.1 μM): significant reduction in cell death | cell death (LDH assay) vs vehicle treated cells (1 μM): significant reduction in cell death
